From publication PMC10065799, “High-throughput profiling of sequence recognition by tyrosine kinases and SH2 domains using bacterial peptide display” (eLife, 2023)

B1: SHP2 D61N: human full-length SHP2 (residues 1–526; C459E, D61N) (protein, UniProt Q06124 2-593, looked up, variant C459E D61N)
Tyrosine-protein phosphatase …: TSRRWFHPNITGVEAENLLLTRGVDGSFLARPSKSNPGDFTLSVRRNGAVTHIKIQNTGNYYDLYGGEKFATLAELVQYYMEHHGQLKEKNGDVIELKYPLNCADPTSERWFHGHLSGKEAEKLLTEKGKHGSFLVRESQSHPGDFVLSVRTGDDKGESNDGKSKVTHVMIRCQELKYDVGGGERFDSLTDLVEHYKKNPMVETLGTVLQLKQPLNTTRINAAEIESRVRELSKLAETTDKVKQGFWEEFETLQQQECKLLYSRKEGQRQENKNKNRYKNILPFDHTRVVLHDGDPNEPVSDYINANIIMPEFETKCNNSKPKKSYIATQGCLQNTVNDFWRMVFQENSRVIVMTTKEVERGKSKCVKYWPDEYALKEYGVMRVRNVKESAAHDYTLRELKLSKVGQGNTERTVWQYHFRTWPDHGVPSDPGGVLDFLEEVHHKQESIMDAGPVVVHESAGIGRTGTFIVIDILIDIIREKGVDCDIDVPKTIQMVRSQRSGMVQTEAQYRFIYMAVQHYIETLQRRIEEEQKSKRKGHEYTNIKYSLADQTSGDQSPLPPCTPTPPCAEMREDSARVYENVGLMQQQKSFR

Tests used:
c-Src kinase domain [1] = biological target: T1, c-Src kinase domain (Homo sapiens, UniProt P12931); assay: RP-HPLC assay to measure peptide phosphorylation kinetics; type: biochemical; settings: purified peptide substrate
c-Src kinase domain [2] = biological target: T1, c-Src kinase domain; assay: pTyr-Var library bacterial peptide display kinase screen (enrichment scores); type: biochemical; settings: sheet "Src"; effect of the variant peptide relative to its reference peptide in the pTyr-Var library screen;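 note: log2 fold change in enrichment of variant over reference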
FGFR1 kinase domain = assay: LC-MS assay of intact SHP2 protein phosphorylation; type: biochemical, human; settings: SHP2 10 μM, kinase 1 μM, 1 hr, 37 °C, 2 to 3 measurements
Description: (§1) The same protocol used to express and purify SH2 domains, excluding co-expression of BirA and addition of biotin, was applied to the expression and purification of the SHP2 variants.
(§2) To pre-activate the kinases, 1 μM of each purified kinase domain was preincubated at 37 °C for 30 min in the same buffer conditions used in the kinase domain peptide display screen, with 1 mM ATP. The reaction of the kinase with SHP2 was initiated with the addition of 10 μM SHP2, and the mixture was incubated in 37 °C for 1 hr. To terminate the reaction, the mixture was quenched with 200 mM EDTA. The reaction mixture was diluted 3:2 in water and injected onto a BEH C8 column (Waters) on a UPLC-MS system (Xevo QToF, Waters). Reverse-phase liquid chromatography was carried out at 0.3 mL/min with solvents A (H2O, 0.1% (v/v) formic acid) and B (acetonitrile, 0.1% (v/v) formic acid). Proteins were eluted over a gradient of 5–95% B for 8.5 min. The protein peak on the chromatogram was deconvoluted using the MaxEnt1 algorithm from 32,000–65,000 Da with a resolution of 1 Da/channel over 30 iterations. Peaks were chosen according to the theoretical MW of the protein within a range of 5 Da, and integrated for the signal intensity.

Fyn kinase domain = assay: LC-MS assay of intact SHP2 protein phosphorylation; type: biochemical, human; settings: SHP2 10 μM, kinase 1 μM, 1 hr, 37 °C, 2 to 3 measurements
Description: as §1, §2

Molecule	Phosphorylation Rate (c-Src kinase domain [1]) [s⁻¹]	Screen (c-Src kinase domain [2])	phosphorylation of intact SHP2 by FGFR1 (FGFR1 kinase domain)	phosphorylation of intact SHP2 by Fyn (Fyn kinase domain)
Ac-WDLPEYSFKDP-NH2 [ITGA3_Y237_S235P_YF, pTyr-Var library variant phosphosite peptide]	0.153	-1.08	–	–
B1	–	–	dramatically enhanced phosphorylation	dramatically enhanced phosphorylation
